{
  "source": "patent US20020187562A1",
  "about": "“Materials for separating and detecting enantiomers of amphetamine or methamphetamine, and their application” (priority 2001, published 2002)",
  "origin": "cited, not measured here",
  "tested_on": "central nervous system",
  "conditions": "relative to D-MA",
  "data": [
    {"smiles": "CN[C@H](C)Cc1ccccc1", "note": "[L-MA, (R)-(−)-N-methyl-1-phenyl-2-aminopropane]", "values": [
      {"measurement": "stimulation to the central nervous system of humans compared with D-MA", "result": "much weaker than that of D-MA"}
    ]}
  ]
}
